We go through 26 compounds from patent publication US9630961B2, “Arginine methyltransferase inhibitors and uses thereof” (Epizyme, Inc., priority 2013, dated 2017).

Molecules are shown by their SMILES. Bounds are passed on as bounds.

In the test the target is T1, PRMT8 (Homo sapiens, UniProt Q9NR22).
T1 construct: Full-length human PRMT8 (NM_019854.4) isoform 1 transcript clone; made in house; host or cells: E. coli BL21(DE3) Gold
As to the kind of experiment: PRMT8 Biochemical Assay (3H-SAM Flashplate, peptide substrate). Particulars: 30 min preincubation, room temperature. An excerpt:
S-adenosylmethionine (SAM), S-adenosylhomocysteine (SAH), bicine, Tween20, dimethylsulfoxide (DMSO), bovine skin gelatin (BSG), isopropyl-β-D-thiogalactopyranoside (IPTG), and Tris(2-carboxyethyl)phosphine hydrochloride solution (TCEP) were purchased from Sigma-Aldrich at the highest level of purity possible. ^3H-SAM was purchase from American Radiolabeled Chemicals with a specific activity of 80 Ci/mmol. 384-well streptavidin Flashplates were purchased from PerkinElmer.
Peptide representative of human histone H4 residues 31-45 was synthesized with an N-terminal linker-affinity tag motif and a C-terminal amide cap by 21st Century Biochemicals. The peptide was purified by high-performance liquid chromatography (HPLC) to greater than 95% purity and confirmed by liquid chromatography mass spectrometry (LC-MS). The sequence was Biot-Ahx-[…]-amide (SEQ ID NO.:8).
The resulting construct encodes an N-terminal GST tag and a thrombin cleavage sequence ([…] […] […] […]) (SEQ ID NO.:9) fused directly to Met 1 of PRMT8.
E. coli (BL21(DE3) Gold, Stratagene) made competent by the CaCl2 method were transformed with the PRMT8 construct and ampicillin selection. Protein over-expression was accomplished by growing the PRMT8 expressing E. coli clone and inducing expression with 0.3 mM IPTG at 16° C. The culture was grown for 12 hours, harvested by centrifugation, and stored at −80° C. for purification.
The column was washed with 50 mM phosphate buffer, 100 mM NaCl, 5% glycerol, 5 mM (3-mercaptoethanol, pH 7.8 and PRMT8 was eluted by 100 mM phosphate in the same buffer. Protein was concentrated and buffer was exchanged to 50 mM Tris, 300 mM NaCl, 10% glycerol, 5 mM β-mercaptoethanol, pH 7.8 by ultrafiltration. The purity of recovered protein was 89%.
General Procedure for PRMT8 Enzyme Assays on Peptide Substrates.
The assays were all performed in a buffer consisting of 20 mM Bicine (pH=7.6), 1 mM TCEP, 0.005% BSG, and 0.002% Tween 20, prepared on the day of use. Compounds in 100% DMSO (1 ul) were spotted into a polypropylene 384-well V-bottom plates (Greiner) using a Platemate Plus outfitted with a 384-channel head (Thermo Scientific). DMSO (1 ul) was added to Columns 11, 12, 23, 24, rows A-H for the maximum signal control and 1 ul of SAH, a known product and inhibitor of PRMT8, was added to columns 11, 12, 23, 24, rows I-P for the minimum signal control. A cocktail (40 ul) containing the PRMT8 enzyme was added by Multidrop Combi (Thermo-Fisher). The compounds were allowed to incubate with PRMT8 for 30 min at room temperature, then a cocktail (10 ul) containing ^3H-SAM and peptide was added to initiate the reaction (final volume=51 ul). The final concentrations of the components were as follows: PRMT8 was 1.5 nM, ^3H-SAM was 50 nM, non-radiolabeled SAM was 550 nM, peptide was 150 nM, SAH in the minimum signal control wells was 1 mM, and the DMSO concentration was 2%. The assays were stopped by the addition of non-radiolabeled SAM (10 ul) to a final concentration of 400 uM, which dilutes the ^3H-SAM to a level where its incorporation into the peptide substrate is no longer detectable. 50 ul of the reaction in the 384-well polypropylene plate was then transferred to a 384-well Flashplate and the biotinylated peptides were allowed to bind to the streptavidin surface for at least 1 hour before being washed once with 0.1% Tween20 in a Biotek ELx405 plate washer. The plates were then read in a PerkinElmer TopCount plate reader to measure the quantity of ^3H-labeled peptide bound to the Flashplate surface, measured as disintegrations per minute (dpm) or alternatively, referred to as counts per minute (cpm).
Where dpm=disintegrations per minute, cmpd=signal in assay well, and min and max are the respective minimum and maximum signal controls.
Where top and bottom are the normally allowed to float, but may be fixed at 100 or 0 respectively in a 3-parameter fit. […]

T1 sequence (Q9NR22 whole entry, canonical isoform): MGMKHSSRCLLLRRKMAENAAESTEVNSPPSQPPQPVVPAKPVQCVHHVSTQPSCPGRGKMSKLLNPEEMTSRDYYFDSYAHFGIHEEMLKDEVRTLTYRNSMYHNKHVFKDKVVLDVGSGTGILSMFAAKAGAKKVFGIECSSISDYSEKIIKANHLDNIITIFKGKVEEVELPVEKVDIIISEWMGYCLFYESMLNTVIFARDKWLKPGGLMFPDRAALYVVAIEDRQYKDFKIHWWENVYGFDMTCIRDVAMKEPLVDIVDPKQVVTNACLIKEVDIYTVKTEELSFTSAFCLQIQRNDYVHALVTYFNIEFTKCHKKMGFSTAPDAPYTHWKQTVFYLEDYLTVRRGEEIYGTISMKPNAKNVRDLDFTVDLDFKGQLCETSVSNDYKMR

The IC50 is the concentration that inhibits the measured activity by half. Read a low IC50 as greater potency in that assay. Turning to `CN(CCN)Cc1c[nH]nc1-c1ccsc1` [Compound 3], the IC50 fell in the range of 1010 to 3000 nM.

`CN(CCN)Cc1c[nH]nc1-c1cncnc1` [Compound 4] displayed an IC50 of 1010 to 3000 nM.

As to `CN(CCN)Cc1c[nH]nc1-c1cccs1` [Compound 5], the 50% inhibitory concentration (IC50) was in the range of 3010 to 10000 nM.

With `CN(CCN)Cc1c[nH]nc1-c1ccco1` [Compound 6], the IC50 lay in the range of 3010 to 10000 nM.

As to `CN(CCN)Cc1c[nH]nc1-c1ccoc1` [Compound 7], the IC50 lay within 1010 to 3000 nM.

The compound `CN(CCN)Cc1c[nH]nc1-c1cnn(C)c1` [Compound 8] displayed an IC50 of 3010 to 10000 nM.

Take `CN(CCN)Cc1c[nH]nc1-c1ccc2scnc2c1` [Compound 9]: the IC50 was in the range of 101 to 1000 nM.

For the compound `Cc1noc(C)c1-c1n[nH]cc1CN(C)CCN` [Compound 10], the IC50 is ≥ 10000 nM.

Compound `COc1ncc(-c2n[nH]cc2CN(C)CCN)cn1` [Compound 11] registered an IC50 of 1010 to 3000 nM.

`CN(CCN)Cc1c[nH]nc1-c1cn[nH]c1` [Compound 12]: the IC50 is 1010 to 3000 nM.

As for `CN(CCN)Cc1c[nH]nc1-c1cnc2[nH]ccc2c1` [Compound 13], the IC50 is 101 to 1000 nM.

Turning to `CN(CCN)Cc1c[nH]nc1-c1cc[nH]n1` [Compound 14], the IC50 is ≥ 10000 nM.

For the compound `CN(CCN)Cc1c[nH]nc1-c1ccnn1C` [Compound 15], the IC50 lay within 3010 to 10000 nM.

`CCn1cc(-c2n[nH]cc2CN(C)CCN)cn1` [Compound 16] had an IC50 of 101 to 1000 nM.

As to `CN(CCN)Cc1c[nH]nc1-c1cnn(-c2ccccc2)c1` [Compound 17], the IC50 was in the range of 101 to 1000 nM.

For `CN(CCN)Cc1c[nH]nc1-c1cnn(CCO)c1` [Compound 18], the IC50 lay within 1010 to 3000 nM.

As for `CN(CCN)Cc1c[nH]nc1-c1ccc2cnn(C)c2c1` [Compound 19, N^1-methyl-N^1-((3-(1-methyl-1H-indazol-6-yl)-1H-pyrazol-4-yl)methyl)ethane-1,2-diamine], the half-maximal inhibitory concentration (IC50) fell in the range of 101 to 1000 nM.

In turn, `CN(CCN)Cc1c[nH]nc1-c1ccc2ncnn2c1` [Compound 20] displayed an IC50 of 1010 to 3000 nM.

As to `CN(CCN)Cc1c[nH]nc1-c1ccc2nccn2c1` [Compound 21, N^1-((3-(imidazo[1,2-a]pyridin-6-yl)-1H-pyrazol-4-yl)methyl)-N^1-methylethane-1,2-diamine], the IC50 was in the range of 101 to 1000 nM.

Compound `CC(C)n1cc(-c2n[nH]cc2CN(C)CCN)cn1` [Compound 22] yielded an IC50 of 101 to 1000 nM.

For `CC(C)Cn1cc(-c2n[nH]cc2CN(C)CCN)cn1` [Compound 23, N^1-((2′-isobutyl-3,4′-bi(1H-pyrazol)-4-yl)methyl)-N^1-methylethane-1,2-diamine], the IC50 lay within 101 to 1000 nM.

For `CN(CCN)Cc1c[nH]nc1-c1cnn(Cc2ccccc2)c1` [Compound 24, N^1-((1′-benzyl-3,4′-bi(1H-pyrazol)-4-yl)methyl)-N^1-methylethane-1,2-diamine], the IC50 was in the range of 101 to 1000 nM.

`CN(CCN)Cc1c[nH]nc1-c1ccc2[nH]ncc2c1` [Compound 27, N^1-((3-(1H-indazol-5-yl)-1H-pyrazol-4-yl)methyl)-N^1-methylethane-1,2-diamine] gave a concentration for half-maximal inhibition (IC50) of 101 to 1000 nM.

On to `CN(CCN)Cc1c[nH]nc1-c1cnc(C2CC2)nc1` [Compound 28], for which the IC50 lay in the range of 1010 to 3000 nM.

Turning to `CN(CCN)Cc1c[nH]nc1-c1ccc[nH]1` [Compound 29], the IC50 fell in the range of 3010 to 10000 nM.

`CN(CCN)Cc1c[nH]nc1-c1cccc2[nH]ncc12` [Compound 30]: the IC50 is 3010 to 10000 nM.
